Laboratory results reported in a compilation of properties of binary mixtures (doi:10.1021/acs.iecr.1c02970).

Assay: xn = mol fraction of the nth substance listed
Conditions: 100 kPa

CC[n+]1ccn(C)c1.CS(=O)(=O)[O-] + O
Conditions | electrical conductivity [S/m] | speed of sound [m/s] | viscosity [mPa·s]
293.15 K, x1 = 0.002 | 0.693 | – | –
293.15 K, x1 = 0.0177 | – | – | 1.439
293.15 K, x1 = 0.0181 | – | 1596.2 | –
293.15 K, x1 = 0.028 | 4.07 | – | –
293.15 K, x1 = 0.0357 | – | – | 1.98
293.15 K, x1 = 0.0375 | – | 1686.1 | –
293.15 K, x1 = 0.0489 | 4.55 | – | –
293.15 K, x1 = 0.07 | 4.39 | – | –
293.15 K, x1 = 0.0749 | – | 1801.7 | –
293.15 K, x1 = 0.0945 | – | 1837.1 | –
293.15 K, x1 = 0.1089 | – | – | 5.395
293.15 K, x1 = 0.1122 | 3.62 | – | –
293.15 K, x1 = 0.113 | – | 1857.6 | –
293.15 K, x1 = 0.1833 | – | 1882.3 | –
293.15 K, x1 = 0.1848 | – | – | 10.55
293.15 K, x1 = 0.2034 | 2.29 | – | –
293.15 K, x1 = 0.2741 | – | 1871.1 | –
293.15 K, x1 = 0.3671 | – | 1850.8 | –
293.15 K, x1 = 0.3752 | 1.19 | – | –
293.15 K, x1 = 0.4263 | – | – | 34.52
293.15 K, x1 = 0.6064 | – | 1809.5 | –
293.15 K, x1 = 0.6951 | – | 1800.2 | –
293.15 K, x1 = 0.7708 | – | 1793 | –
293.15 K, x1 = 0.9157 | – | 1780.8 | –
293.15 K, x1 = 0.9339 | 0.201 | – | –
293.15 K, x1 = 0.9357 | – | – | 214.4
293.15 K, x2 = 0.0082 | – | 1779.6 | –
298.15 K, x1 = 0.0375 | – | 1686.1 | –
298.15 K, x1 = 0.056 | – | 1749 | –
298.15 K, x1 = 0.0749 | – | 1794.6 | –
298.15 K, x1 = 0.0945 | – | 1828.1 | –
298.15 K, x1 = 0.113 | – | 1847.4 | –
298.15 K, x1 = 0.2741 | – | 1859.1 | –
298.15 K, x1 = 0.3671 | – | 1839 | –
298.15 K, x1 = 0.489 | – | 1815.1 | –
298.15 K, x1 = 0.6064 | – | 1797 | –
298.15 K, x1 = 0.6951 | – | 1787.9 | –
298.15 K, x1 = 0.9157 | – | 1767.6 | –
298.15 K, x2 = 0.0082 | – | 1766.9 | –
303.15 K, x1 = 0.002 | 0.852 | – | –
303.15 K, x1 = 0.0165 | 4.03 | – | –
303.15 K, x1 = 0.0181 | – | 1607.4 | –
303.15 K, x1 = 0.028 | 5.09 | – | –
303.15 K, x1 = 0.0357 | – | – | 1.541
303.15 K, x1 = 0.0375 | – | 1685.5 | –
303.15 K, x1 = 0.0489 | 5.75 | – | –
303.15 K, x1 = 0.0674 | – | – | 2.309
303.15 K, x1 = 0.07 | 5.61 | – | –
303.15 K, x1 = 0.0749 | – | 1787.3 | –
303.15 K, x1 = 0.0945 | – | 1818.7 | –
303.15 K, x1 = 0.1089 | – | – | 3.994
303.15 K, x1 = 0.113 | – | 1837.3 | –
303.15 K, x1 = 0.1833 | – | 1859.5 | –
303.15 K, x1 = 0.1848 | – | – | 7.58
303.15 K, x1 = 0.2034 | 3.13 | – | –
303.15 K, x1 = 0.2741 | – | 1847.2 | –
303.15 K, x1 = 0.3671 | – | 1827.1 | –
303.15 K, x1 = 0.3752 | 1.67 | – | –
303.15 K, x1 = 0.4263 | – | – | 23.25
303.15 K, x1 = 0.489 | – | 1802.7 | –
303.15 K, x1 = 0.6951 | – | 1775.8 | –
303.15 K, x1 = 0.7708 | – | 1767.9 | –
303.15 K, x1 = 0.9157 | – | 1755.3 | –
303.15 K, x1 = 0.9339 | 0.351 | – | –
303.15 K, x2 = 0.0082 | – | 1754.4 | –
308.15 K, x1 = 0.0181 | – | 1611.3 | –
308.15 K, x1 = 0.0375 | – | 1684.1 | –
308.15 K, x1 = 0.056 | – | 1739.2 | –
308.15 K, x1 = 0.0749 | – | 1779.7 | –
308.15 K, x1 = 0.113 | – | 1827 | –
308.15 K, x1 = 0.1833 | – | 1848.4 | –
308.15 K, x1 = 0.2741 | – | 1835.3 | –
308.15 K, x1 = 0.3671 | – | 1815.2 | –
308.15 K, x1 = 0.489 | – | 1790.4 | –
308.15 K, x1 = 0.6951 | – | 1763.8 | –
308.15 K, x1 = 0.7708 | – | 1755.8 | –
308.15 K, x1 = 0.9157 | – | 1743.1 | –
308.15 K, x2 = 0.0082 | – | 1742.1 | –
313.15 K, x1 = 0.002 | 1.02 | – | –
313.15 K, x1 = 0.0165 | 4.87 | – | –
313.15 K, x1 = 0.0177 | – | – | 0.917
313.15 K, x1 = 0.0181 | – | 1614.1 | –
313.15 K, x1 = 0.028 | 6.18 | – | –
313.15 K, x1 = 0.0375 | – | 1682.2 | –
313.15 K, x1 = 0.0489 | 7.04 | – | –
313.15 K, x1 = 0.056 | – | 1733.8 | –
313.15 K, x1 = 0.0674 | – | – | 1.819
313.15 K, x1 = 0.07 | 6.95 | – | –
313.15 K, x1 = 0.0749 | – | 1771.7 | –
313.15 K, x1 = 0.0945 | – | 1799.6 | –
313.15 K, x1 = 0.1122 | 6 | – | –
313.15 K, x1 = 0.113 | – | 1816.6 | –
313.15 K, x1 = 0.1833 | – | 1836.9 | –
313.15 K, x1 = 0.1848 | – | – | 5.649
313.15 K, x1 = 0.2034 | 4.08 | – | –
313.15 K, x1 = 0.2741 | – | 1823.4 | –
313.15 K, x1 = 0.3671 | – | 1803.3 | –
313.15 K, x1 = 0.4263 | – | – | 16.5
313.15 K, x1 = 0.489 | – | 1778.5 | –
313.15 K, x1 = 0.6064 | – | 1760.4 | –
313.15 K, x1 = 0.6951 | – | 1751.7 | –
313.15 K, x1 = 0.7708 | – | 1743.9 | –
313.15 K, x1 = 0.9339 | 0.558 | – | –
313.15 K, x1 = 0.9357 | – | – | 68.4
313.15 K, x2 = 0.0082 | – | 1730 | –
